Source: ChEMBL document CHEMBL4813994, “Discovery of novel and potent PARP/PI3K dual inhibitors for the treatment of cancer” (Eur J Med Chem, 2021)
Each block holds one compound with its values, some of them ahead of it.

Key:
[1] = target: Phosphatidylinositol 4,5-bisphosphate 3-kinase catalytic subunit alpha isoform (Homo sapiens, UniProt P42336); assay: Inhibition of PI3Kalpha (unknown origin) using PIP2 as substrate measured after 40 mins by ADP-glo plus luminescence assay
[2] = target: Poly [ADP-ribose] polymerase 1 (Homo sapiens, UniProt P09874); assay: Inhibition of PARP1 (unknown origin) using biotin-NAD+ as substrate incubated for 1 hr by ELISA
Sequence of Poly [ADP-ribose] polymerase 1 (P09874 whole entry): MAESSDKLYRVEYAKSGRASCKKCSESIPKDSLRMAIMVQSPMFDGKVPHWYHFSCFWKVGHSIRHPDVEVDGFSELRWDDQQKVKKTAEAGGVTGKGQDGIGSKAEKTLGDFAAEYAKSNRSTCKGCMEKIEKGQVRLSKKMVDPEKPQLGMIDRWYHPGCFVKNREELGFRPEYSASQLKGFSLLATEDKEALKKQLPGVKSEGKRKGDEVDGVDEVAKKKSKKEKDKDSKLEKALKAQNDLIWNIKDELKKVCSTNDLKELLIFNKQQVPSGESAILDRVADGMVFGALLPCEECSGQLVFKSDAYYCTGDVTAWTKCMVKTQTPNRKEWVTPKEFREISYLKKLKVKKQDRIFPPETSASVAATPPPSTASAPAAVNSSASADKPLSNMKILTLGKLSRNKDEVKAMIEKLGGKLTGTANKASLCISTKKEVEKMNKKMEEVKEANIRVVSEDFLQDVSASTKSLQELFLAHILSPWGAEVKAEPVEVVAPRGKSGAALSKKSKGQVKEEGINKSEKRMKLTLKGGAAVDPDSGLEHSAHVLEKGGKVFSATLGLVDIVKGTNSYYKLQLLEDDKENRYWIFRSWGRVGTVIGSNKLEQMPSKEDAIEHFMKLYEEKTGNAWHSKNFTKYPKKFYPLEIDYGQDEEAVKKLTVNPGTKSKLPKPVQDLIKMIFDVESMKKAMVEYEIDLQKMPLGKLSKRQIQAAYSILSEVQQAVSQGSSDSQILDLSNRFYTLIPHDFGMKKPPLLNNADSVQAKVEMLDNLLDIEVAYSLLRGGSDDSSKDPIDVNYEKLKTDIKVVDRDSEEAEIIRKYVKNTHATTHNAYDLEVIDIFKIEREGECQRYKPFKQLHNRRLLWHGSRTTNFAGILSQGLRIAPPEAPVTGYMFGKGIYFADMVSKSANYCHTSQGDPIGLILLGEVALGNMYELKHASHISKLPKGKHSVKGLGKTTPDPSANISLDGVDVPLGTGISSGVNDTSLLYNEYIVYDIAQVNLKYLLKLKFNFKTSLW

[3] = test system: MDA-MB-468; assay: Antiproliferative activity against human BRCA proficient MDA-MB-468 cells assessed as reduction in cell growth incubated for 7 days by cell titer-glo assay; assay type: functional, cell-based; conditions: MDA-MB-468, 168 h
[4] = test system: HCC1937; assay: Antiproliferative activity against human BRCA-1 deficient HCC1937 cells assessed as reduction in cell growth incubated for 7 days by cell titer-glo assay; assay type: functional, cell-based; conditions: HCC1937, 168 h
[5] = test system: HCT-116; assay: Antiproliferative activity against human BRCA-2 deficient HCT-116 cells assessed as reduction in cell growth incubated for 7 days by cell titer-glo assay; assay type: functional, cell-based; conditions: HCT-116, 168 h
[6] = test system: MDA-MB-231; assay: Antiproliferative activity against human BRCA proficient MDA-MB-231 cells assessed as reduction in cell growth incubated for 7 days by cell titer-glo assay; assay type: functional, cell-based; conditions: MDA-MB-231, 168 h
[7] = test system: SW-620; assay: Antiproliferative activity against human BRCA-2 proficient SW-620 cells assessed as reduction in cell growth incubated for 7 days by cell titer-glo assay; assay type: functional, cell-based; conditions: SW-620, 168 h
[8] = target: Serine/threonine-protein kinase mTOR (Homo sapiens, UniProt P42345); assay: Inhibition of mTOR (unknown origin)
[9] = target: RAC-alpha serine/threonine-protein kinase (Homo sapiens, UniProt P31749); assay: Inhibition of AKT (unknown origin)
[10] = target: T1, Phosphatidylinositol 4,5-bisphosphate 3-kinase catalytic subunit delta isoform (Homo sapiens, UniProt O00329); assay: Inhibition of PI3Kdelta (unknown origin) using PIP2 as substrate measured after 2 hrs by ADP-glo plus luminescence assay
T1 sequence (O00329 whole entry): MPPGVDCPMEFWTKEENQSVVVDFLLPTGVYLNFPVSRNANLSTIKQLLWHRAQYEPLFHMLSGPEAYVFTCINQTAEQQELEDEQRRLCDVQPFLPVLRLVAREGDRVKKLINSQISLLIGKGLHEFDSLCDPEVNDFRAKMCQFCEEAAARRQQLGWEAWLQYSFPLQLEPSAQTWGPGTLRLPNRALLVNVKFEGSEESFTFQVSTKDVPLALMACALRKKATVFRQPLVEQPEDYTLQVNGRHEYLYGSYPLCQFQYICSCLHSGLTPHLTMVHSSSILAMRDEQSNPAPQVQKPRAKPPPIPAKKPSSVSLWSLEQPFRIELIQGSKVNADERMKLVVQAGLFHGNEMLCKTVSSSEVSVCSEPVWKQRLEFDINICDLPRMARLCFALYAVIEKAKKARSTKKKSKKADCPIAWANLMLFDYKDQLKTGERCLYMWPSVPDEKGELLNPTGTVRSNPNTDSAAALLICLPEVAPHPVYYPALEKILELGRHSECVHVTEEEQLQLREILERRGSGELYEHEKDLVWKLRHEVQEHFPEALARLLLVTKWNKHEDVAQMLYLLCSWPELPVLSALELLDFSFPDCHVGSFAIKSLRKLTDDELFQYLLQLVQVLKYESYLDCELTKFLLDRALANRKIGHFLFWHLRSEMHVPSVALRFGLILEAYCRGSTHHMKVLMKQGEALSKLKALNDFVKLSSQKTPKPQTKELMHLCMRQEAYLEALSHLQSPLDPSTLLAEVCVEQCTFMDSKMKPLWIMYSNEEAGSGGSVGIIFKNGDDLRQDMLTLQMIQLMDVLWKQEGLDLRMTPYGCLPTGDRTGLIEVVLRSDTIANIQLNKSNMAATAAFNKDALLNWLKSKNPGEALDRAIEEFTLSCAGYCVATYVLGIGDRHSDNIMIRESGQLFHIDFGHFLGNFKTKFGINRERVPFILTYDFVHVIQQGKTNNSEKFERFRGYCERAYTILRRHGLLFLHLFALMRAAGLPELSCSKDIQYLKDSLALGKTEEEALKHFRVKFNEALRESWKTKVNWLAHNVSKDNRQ

[11] = target: Phosphatidylinositol 4,5-bisphosphate 3-kinase catalytic subunit beta isoform (Homo sapiens, UniProt P42338); assay: Inhibition of PI3Kbeta (unknown origin) using PIP2 as substrate measured after 1 hr by ADP-glo plus luminescence assay
Sequence of Phosphatidylinositol 4,5-bisphosphate 3-kinase catalytic subunit beta isoform (P42338 whole entry, canonical isoform): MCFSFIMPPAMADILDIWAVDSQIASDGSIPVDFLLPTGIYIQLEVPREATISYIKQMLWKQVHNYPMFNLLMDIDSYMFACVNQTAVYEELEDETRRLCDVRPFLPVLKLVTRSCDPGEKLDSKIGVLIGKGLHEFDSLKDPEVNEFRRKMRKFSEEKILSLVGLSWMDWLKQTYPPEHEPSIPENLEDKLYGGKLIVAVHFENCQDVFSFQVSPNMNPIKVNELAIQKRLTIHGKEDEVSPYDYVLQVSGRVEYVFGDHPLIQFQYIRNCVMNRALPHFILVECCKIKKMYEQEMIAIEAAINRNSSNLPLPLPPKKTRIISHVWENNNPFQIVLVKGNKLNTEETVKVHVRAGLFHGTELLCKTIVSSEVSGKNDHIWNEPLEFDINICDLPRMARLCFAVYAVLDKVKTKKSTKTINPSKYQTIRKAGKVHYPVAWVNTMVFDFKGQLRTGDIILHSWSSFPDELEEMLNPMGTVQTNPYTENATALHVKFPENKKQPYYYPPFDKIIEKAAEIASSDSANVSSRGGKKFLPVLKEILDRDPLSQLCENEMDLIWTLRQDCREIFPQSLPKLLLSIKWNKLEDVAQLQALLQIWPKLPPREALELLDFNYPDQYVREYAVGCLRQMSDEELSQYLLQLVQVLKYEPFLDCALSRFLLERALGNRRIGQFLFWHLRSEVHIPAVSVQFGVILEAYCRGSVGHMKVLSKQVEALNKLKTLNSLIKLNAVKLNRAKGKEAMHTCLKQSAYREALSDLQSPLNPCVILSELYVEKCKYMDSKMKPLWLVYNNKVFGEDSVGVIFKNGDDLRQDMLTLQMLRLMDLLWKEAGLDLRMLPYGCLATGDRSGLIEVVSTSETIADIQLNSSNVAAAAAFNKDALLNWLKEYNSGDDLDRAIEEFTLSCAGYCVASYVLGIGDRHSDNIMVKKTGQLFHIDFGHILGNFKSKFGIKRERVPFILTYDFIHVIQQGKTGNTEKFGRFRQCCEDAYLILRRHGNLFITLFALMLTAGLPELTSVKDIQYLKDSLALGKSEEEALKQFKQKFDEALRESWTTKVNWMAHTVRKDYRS

[12] = test system: MDA-MB-468; assay: Antitumor activity against human MDA-MB-468 cells xenografted in BALB/c mouse assessed as tumor growth inhibition at 20 mg/kg, ip once daily administered for 32 days relative to control; assay type: functional; conditions: MDA-MB-468, ip, 768 h, time 32 day, read-out: TGI
[13] = target: Phosphatidylinositol 4,5-bisphosphate 3-kinase catalytic subunit gamma isoform (Homo sapiens, UniProt P48736); assay: Inhibition of PI3Kgamma (unknown origin) using PIP2 as substrate measured after 1 hr by ADP-glo plus luminescence assay
Sequence of Phosphatidylinositol 4,5-bisphosphate 3-kinase catalytic subunit gamma isoform (P48736 whole entry, canonical isoform): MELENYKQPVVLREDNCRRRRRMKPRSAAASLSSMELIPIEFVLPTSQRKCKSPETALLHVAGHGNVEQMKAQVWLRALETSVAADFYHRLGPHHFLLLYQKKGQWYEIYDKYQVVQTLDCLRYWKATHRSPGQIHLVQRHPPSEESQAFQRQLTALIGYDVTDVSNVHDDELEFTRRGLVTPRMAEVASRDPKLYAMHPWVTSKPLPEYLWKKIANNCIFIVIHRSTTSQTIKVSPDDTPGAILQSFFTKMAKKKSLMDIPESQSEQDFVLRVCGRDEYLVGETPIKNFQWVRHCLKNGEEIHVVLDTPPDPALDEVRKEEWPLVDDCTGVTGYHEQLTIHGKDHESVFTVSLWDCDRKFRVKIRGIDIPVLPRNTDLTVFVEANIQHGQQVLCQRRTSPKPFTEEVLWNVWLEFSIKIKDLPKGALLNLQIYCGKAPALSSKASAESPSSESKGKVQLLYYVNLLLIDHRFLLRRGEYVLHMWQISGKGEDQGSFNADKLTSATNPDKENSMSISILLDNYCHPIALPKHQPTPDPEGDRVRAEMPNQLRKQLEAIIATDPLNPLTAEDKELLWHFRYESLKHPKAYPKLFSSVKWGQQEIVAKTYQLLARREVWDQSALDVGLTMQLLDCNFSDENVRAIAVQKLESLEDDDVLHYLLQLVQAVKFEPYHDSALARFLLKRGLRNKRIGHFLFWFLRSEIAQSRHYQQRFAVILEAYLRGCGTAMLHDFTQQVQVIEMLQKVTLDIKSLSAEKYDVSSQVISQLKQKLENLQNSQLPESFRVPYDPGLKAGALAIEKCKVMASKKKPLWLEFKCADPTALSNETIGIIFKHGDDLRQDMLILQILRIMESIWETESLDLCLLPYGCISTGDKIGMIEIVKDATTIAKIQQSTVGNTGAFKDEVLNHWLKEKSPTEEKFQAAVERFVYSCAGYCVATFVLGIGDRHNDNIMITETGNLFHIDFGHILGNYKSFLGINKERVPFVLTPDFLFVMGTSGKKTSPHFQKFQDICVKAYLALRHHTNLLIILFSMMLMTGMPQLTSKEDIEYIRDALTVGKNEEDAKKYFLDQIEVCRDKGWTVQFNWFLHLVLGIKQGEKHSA

[14] = target: Poly [ADP-ribose] polymerase 2 (Homo sapiens, UniProt Q9UGN5); assay: Inhibition of PARP2 (unknown origin) using biotin-NAD+ as substrate incubated for 1 hr by ELISA
Sequence of Poly [ADP-ribose] polymerase 2 (Q9UGN5 whole entry): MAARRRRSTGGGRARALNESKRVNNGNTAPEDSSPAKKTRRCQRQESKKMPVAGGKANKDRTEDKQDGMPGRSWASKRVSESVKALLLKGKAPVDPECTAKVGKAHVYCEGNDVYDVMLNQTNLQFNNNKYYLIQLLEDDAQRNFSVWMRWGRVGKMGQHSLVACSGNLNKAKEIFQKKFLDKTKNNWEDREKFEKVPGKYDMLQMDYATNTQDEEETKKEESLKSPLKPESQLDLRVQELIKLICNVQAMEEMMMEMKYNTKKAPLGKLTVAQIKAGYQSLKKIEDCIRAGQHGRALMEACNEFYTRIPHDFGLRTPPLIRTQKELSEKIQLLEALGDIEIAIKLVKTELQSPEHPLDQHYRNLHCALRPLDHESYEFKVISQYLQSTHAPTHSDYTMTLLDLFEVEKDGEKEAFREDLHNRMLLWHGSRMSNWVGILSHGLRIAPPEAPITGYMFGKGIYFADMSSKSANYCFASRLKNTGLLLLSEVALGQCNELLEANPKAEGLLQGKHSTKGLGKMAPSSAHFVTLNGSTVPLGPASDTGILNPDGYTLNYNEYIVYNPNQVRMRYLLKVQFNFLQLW

[15] = target: Voltage-gated inwardly rectifying potassium channel KCNH2 (Homo sapiens, UniProt Q12809); assay: Inhibition of human ERG
[16] = test system: MDA-MB-468; assay: Antitumor activity against human MDA-MB-468 cells xenografted in BALB/c mouse assessed as tumor growth inhibition at 27.5 mg/kg, ip once daily administered for 32 days relative to control; assay type: functional; conditions: MDA-MB-468, ip, 768 h, time 32 day, read-out: TGI
[17] = test system: MDA-MB-468; assay: Antitumor activity against human MDA-MB-468 cells xenografted in BALB/c mouse assessed as tumor growth inhibition at 27.5 mg/kg, ip administered for 32 days along with olaparib relative to control; assay type: functional; conditions: MDA-MB-468, ip, 768 h, time 32 day, read-out: TGI

Sequence of Phosphatidylinositol 4,5-bisphosphate 3-kinase catalytic subunit alpha isoform (P42336 whole entry, canonical isoform): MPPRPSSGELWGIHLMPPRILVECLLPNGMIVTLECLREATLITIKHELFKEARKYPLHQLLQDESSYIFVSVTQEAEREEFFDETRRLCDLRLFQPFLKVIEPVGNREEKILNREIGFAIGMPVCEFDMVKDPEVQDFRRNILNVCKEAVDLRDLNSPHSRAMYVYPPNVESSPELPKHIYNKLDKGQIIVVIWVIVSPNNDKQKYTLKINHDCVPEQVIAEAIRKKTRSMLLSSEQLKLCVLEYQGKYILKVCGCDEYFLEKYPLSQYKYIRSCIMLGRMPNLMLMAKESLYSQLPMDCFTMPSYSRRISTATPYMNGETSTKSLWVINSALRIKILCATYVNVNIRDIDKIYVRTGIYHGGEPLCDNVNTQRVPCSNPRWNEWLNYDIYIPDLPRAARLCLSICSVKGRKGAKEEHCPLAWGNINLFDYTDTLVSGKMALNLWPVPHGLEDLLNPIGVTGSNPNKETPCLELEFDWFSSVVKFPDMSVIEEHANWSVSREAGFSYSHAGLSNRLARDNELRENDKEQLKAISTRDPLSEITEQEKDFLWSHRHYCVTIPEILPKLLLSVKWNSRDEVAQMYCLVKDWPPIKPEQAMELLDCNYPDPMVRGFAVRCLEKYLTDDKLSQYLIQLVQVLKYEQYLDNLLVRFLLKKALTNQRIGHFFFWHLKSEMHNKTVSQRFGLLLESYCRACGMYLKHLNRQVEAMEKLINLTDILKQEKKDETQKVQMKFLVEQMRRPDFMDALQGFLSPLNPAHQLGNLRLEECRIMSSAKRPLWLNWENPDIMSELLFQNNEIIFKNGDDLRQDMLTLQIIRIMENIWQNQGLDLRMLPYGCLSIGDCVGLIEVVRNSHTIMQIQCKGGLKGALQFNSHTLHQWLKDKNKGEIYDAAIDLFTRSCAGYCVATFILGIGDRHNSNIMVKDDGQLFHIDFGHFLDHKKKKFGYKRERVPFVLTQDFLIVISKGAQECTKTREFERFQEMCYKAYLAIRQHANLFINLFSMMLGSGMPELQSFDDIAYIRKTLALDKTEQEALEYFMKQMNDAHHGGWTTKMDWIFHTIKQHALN

SMILES: Cc1c(CN2CCN(C(=O)c3cc4cccc(C(N)=O)c4o3)CC2)sc2c(N3CCOCC3)nc(-c3cnc(N)cc3C(F)(F)F)nc12
IC50 [1]: 0.0023 µM
IC50 [2]: 0.101 µM
IC50 [3]: 1.63 µM
IC50 [4]: 0.5 µM
IC50 [5]: 0.69 µM
IC50 [6]: 3.17 µM
IC50 [7]: 3.37 µM

SMILES: Cc1c(CN2CCN(C(=O)c3cc(Cc4n[nH]c(=O)c5ccccc45)ccc3F)CC2)sc2c(N3CCOCC3)nc(-c3cnc(N)nc3)nc12
IC50 [1]: 0.002 µM
IC50 [8]: 0.05 µM
IC50 [9]: > 100 µM
IC50 [10]: 0.0068 µM
IC50 [2]: 0.0015 µM
IC50 [11]: 0.053 µM
inhibition in vivo at 20 mg/kg [12]: 56.4%
IC50 [3]: 1.08 µM
IC50 [4]: 0.41 µM
IC50 [13]: 0.025 µM
IC50 [5]: 0.31 µM
IC50 [6]: 1.3 µM
IC50 [7]: 0.92 µM
IC50 [14]: 0.00089 µM

SMILES: Nc1ncc(-c2nc(N3CCOCC3)c3sc(CN4CCN(C(=O)c5cc(Cc6n[nH]c(=O)c7ccccc67)ccc5F)CC4)cc3n2)cn1
IC50 [1]: 0.0037 µM
IC50 [2]: 0.0088 µM

SMILES: NC(=O)c1cccc2cc(C(=O)N3CCN(Cc4cc5nc(-c6cnc(N)nc6)nc(N6CCOCC6)c5o4)CC3)oc12
IC50 [1]: 0.00051 µM
IC50 [8]: 0.216 µM
IC50 [10]: 0.0043 µM
IC50 [2]: 0.00297 µM
IC50 [11]: 0.069 µM
IC50 [13]: 0.141 µM
IC50 [14]: 0.00134 µM

SMILES: Cc1c(CN2CCN(C(=O)[C@H](C)O)CC2)sc2c(N3CCOCC3)nc(-c3cnc(N)nc3)nc12 [APITOLISIB]
inhibition in vivo at 27.5 mg/kg [16]: 38%
IC50 [3]: 1.67 µM
IC50 [4]: 3.21 µM
inhibition in vivo at 27.5 mg/kg [17]: 45.9%
IC50 [5]: 1.11 µM
IC50 [6]: 2.46 µM
IC50 [7]: 1.72 µM

SMILES: Cc1c(CN2CCN(C(=O)c3cc(Cc4n[nH]c(=O)c5ccccc45)ccc3F)CC2)sc2c(N3CCOCC3)nc(-c3cnc(N)cc3C(F)(F)F)nc12
IC50 [1]: 0.007 µM
IC50 [2]: 0.197 µM
IC50 [3]: 2.65 µM
IC50 [4]: 1.08 µM
IC50 [5]: 0.69 µM
IC50 [6]: 3.6 µM
IC50 [7]: 7.23 µM

SMILES: NC(=O)c1cccc2cc(C(=O)N3CCN(Cc4cc5nc(-c6cnc(N)nc6)nc(N6CCOCC6)c5s4)CC3)oc12
IC50 [1]: 0.0006 µM
IC50 [8]: 0.023 µM
IC50 [10]: 0.0018 µM
IC50 [2]: 0.00198 µM
IC50 [11]: 0.011 µM
IC50 [13]: 0.031 µM
IC50 [14]: 0.00119 µM

Continued, in another order:

IC50 [1]: 0.014 µM
IC50 [2]: 0.0019 µM
SMILES: Cc1c(CN2CCN(C(=O)c3cc4cccc(C(N)=O)c4o3)CC2)sc2c(N3CCOCC3)nc(-c3ccc(N)nc3)nc12

IC50 [1]: 0.319 µM
IC50 [2]: 0.0226 µM
IC50 [3]: 9.26 µM
IC50 [4]: 4.58 µM
IC50 [5]: 3.97 µM
IC50 [6]: 7.17 µM
IC50 [7]: 7.98 µM
SMILES: Cc1c(CN2CCN(C(=O)c3cc4cccc(C(N)=O)c4o3)CC2)sc2c(N3CCOCC3)nc(-c3ccc(N)cc3)nc12

IC50 [1]: 1.14 µM
IC50 [2]: 0.14 µM
SMILES: Cc1c(CN2CCN(C(=O)c3cc4cccc(C(N)=O)c4o3)CC2)sc2c(N3CCOCC3)nc(-c3cccc4[nH]ccc34)nc12

IC50 [1]: 1.18 µM
IC50 [2]: 0.00918 µM
IC50 [3]: > 10 µM
IC50 [4]: 3.86 µM
IC50 [5]: 2.32 µM
IC50 [6]: > 10 µM
IC50 [7]: > 10 µM
SMILES: Cc1c(CN2CCN(C(=O)c3cc4cccc(C(N)=O)c4o3)CC2)sc2c(N3CCOCC3)nc(-c3ccc(N)c(F)c3)nc12

IC50 [2]: 0.0401 µM
SMILES: Cc1c(CN2CCN(C(=O)c3cc4cccc(C(N)=O)c4o3)CC2)sc2c(N3CCOCC3)nc(-c3ccc(N)cc3F)nc12

IC50 [1]: 0.0015 µM
IC50 [8]: 0.012 µM
IC50 [9]: > 100 µM
IC50 [10]: 0.0027 µM
IC50 [2]: 0.00091 µM
IC50 [11]: 0.043 µM
IC50 [3]: 1.02 µM
IC50 [4]: 0.29 µM
IC50 [13]: 0.073 µM
IC50 [5]: 0.28 µM
IC50 [6]: 0.92 µM
IC50 [7]: 0.88 µM
IC50 [14]: 0.00092 µM
SMILES: Cc1c(CN2CCN(C(=O)c3cc4cccc(C(N)=O)c4o3)CC2)sc2c(N3CCOCC3)nc(-c3cnc(N)nc3)nc12
IC50 [15]: > 30 µM
inhibition in vivo at 20 mg/kg [12]: 48.8%

IC50 [1]: 1.38 µM
IC50 [2]: 0.0167 µM
IC50 [3]: > 10 µM
IC50 [4]: 5.38 µM
IC50 [5]: 5.84 µM
IC50 [6]: > 10 µM
IC50 [7]: > 10 µM
SMILES: Cc1c(CN2CCN(C(=O)c3cc4cccc(C(N)=O)c4o3)CC2)sc2c(N3CCOCC3)nc(-c3ccc(F)c(N)c3)nc12

IC50 [1]: 3.81 µM
IC50 [2]: 0.0915 µM
IC50 [3]: > 10 µM
IC50 [4]: 3.57 µM
IC50 [5]: 5.07 µM
IC50 [6]: > 10 µM
IC50 [7]: > 10 µM
SMILES: Cc1c(CN2CCN(C(=O)c3cc4cccc(C(N)=O)c4o3)CC2)sc2c(N3CCOCC3)nc(-c3ccc4cn[nH]c4c3)nc12

IC50 [1]: 0.168 µM
IC50 [2]: 0.0424 µM
IC50 [3]: > 10 µM
IC50 [4]: 0.8 µM
IC50 [5]: 0.89 µM
IC50 [6]: 3.3 µM
IC50 [7]: 3.32 µM
SMILES: Cc1c(CN2CCN(C(=O)c3cc4cccc(C(N)=O)c4o3)CC2)sc2c(N3CCOCC3)nc(-c3cccc4[nH]ncc34)nc12

IC50 [2]: 0.0317 µM
SMILES: Cc1c(CN2CCN(C(=O)c3cc4cccc(C(N)=O)c4o3)CC2)sc2c(N3CCOCC3)nc(-c3ccc4[nH]ccc4c3)nc12
